# “And” between values parts separate entries of the source, which are not always exact repeats. Equal entries are not always repeated. Inconclusive results and toxic doses are left out.
# Test system: C57BL/6 mice, intracerebral ependymoblastoma, median survival T/C
# Test: NCI In Vivo Anticancer Drug Screen. Data for tumor model Ependymoblastoma (intracerebral) in C57BL/6 mice
# Settings: endpoint: median survival time, higher = longer survival
# Method: The antitumor activity of compounds was measured in mice bearing transplantable tumors. Survival or tumor size were measured and the results are expressed as the measurement made in the treated group (T) divided by the measurement made in the vehicle treated control group (C). The tumor model used in this assay is Ependymoblastoma (intracerebral) in C57BL/6 mice
# [1] = dose: 4.0 mg/kg/injection, schedule: Q01DX005 (ip), vehicle: saline with Tween-80
# [2] = dose: 45.0 mg/kg/injection, schedule: Q01DX005 (ip), vehicle: saline with Tween-80
# [3] = dose: 90.0 mg/kg/injection, schedule: Q01DX005 (ip), vehicle: saline with Tween-80
# [4] = dose: 180.0 mg/kg/injection, schedule: Q01DX005 (ip), vehicle: saline with Tween-80
# [5] = dose: 360.0 mg/kg/injection, schedule: Q01DX005 (ip), vehicle: saline with Tween-80
# [6] = dose: 8.0 mg/kg/injection, schedule: Q01DX005 (ip), vehicle: saline
# [7] = dose: 16.0 mg/kg/injection, schedule: Q01DX005 (ip), vehicle: saline with Tween-80
# [8] = dose: 16.0 mg/kg/injection, schedule: Q01DX005 (ip), vehicle: saline
# [9] = dose: 32.0 mg/kg/injection, schedule: Q01DX005 (ip), vehicle: saline with Tween-80
# [10] = dose: 32.0 mg/kg/injection, schedule: Q01DX005 (ip), vehicle: saline
# [11] = dose: 64.0 mg/kg/injection, schedule: Q01DX005 (ip), vehicle: saline with Tween-80
# [12] = dose: 64.0 mg/kg/injection, schedule: Q01DX005 (ip), vehicle: saline
# [13] = dose: 128.0 mg/kg/injection, schedule: Q01DX005 (ip), vehicle: saline with Tween-80
# [14] = dose: 0.05 mg/kg/injection, schedule: Q01DX005 (ip), vehicle: saline
# [15] = dose: 0.1 mg/kg/injection, schedule: Q01DX005 (ip), vehicle: saline
# [16] = dose: 0.2 mg/kg/injection, schedule: Q01DX005 (ip), vehicle: saline
# [17] = dose: 0.8 mg/kg/injection, schedule: Q01DX005 (ip), vehicle: saline
smiles,measurement,setting,value
CC1CCC(NC(=O)N(CCCl)N=O)CC1 (stereo unspecified),T/C,"dose: 8.0 mg/kg/injection, schedule: Q01DX001 (ip), vehicle: saline with Tween-80",99 % of control
same,T/C,"dose: 8.0 mg/kg/injection, schedule: Q01DX005 (oral), vehicle: Klucel (hydroxypropylcellulose) (HPC)",156 % of control
same,T/C,"dose: 16.0 mg/kg/injection, schedule: Q01DX001 (ip), vehicle: saline with Tween-80",114 % of control
same,T/C,"dose: 16.0 mg/kg/injection, schedule: Q01DX005 (oral), vehicle: Klucel (hydroxypropylcellulose) (HPC)",151 % of control
same,T/C,"dose: 32.0 mg/kg/injection, schedule: Q01DX001 (ip), vehicle: saline with Tween-80",109 % of control
same,T/C,"dose: 32.0 mg/kg/injection, schedule: Q01DX001 (oral), vehicle: Klucel (hydroxypropylcellulose) (HPC)",97 % of control
same,T/C,"dose: 64.0 mg/kg/injection, schedule: Q01DX001 (ip), vehicle: saline with Tween-80",95 % of control and 109 % of control
same,T/C,"dose: 64.0 mg/kg/injection, schedule: Q01DX001 (oral), vehicle: Klucel (hydroxypropylcellulose) (HPC)",102 % of control
same,T/C,"dose: 128.0 mg/kg/injection, schedule: Q01DX001 (ip), vehicle: saline with Tween-80",98 % of control and 102 % of control
same,T/C,"dose: 128.0 mg/kg/injection, schedule: Q01DX001 (oral), vehicle: Klucel (hydroxypropylcellulose) (HPC)",102 % of control
same,T/C,"dose: 256.0 mg/kg/injection, schedule: Q01DX001 (ip), vehicle: saline with Tween-80",97 % of control
same,T/C,"dose: 256.0 mg/kg/injection, schedule: Q01DX001 (oral), vehicle: Klucel (hydroxypropylcellulose) (HPC)",95 % of control
same,T/C,"dose: 512.0 mg/kg/injection, schedule: Q01DX001 (ip), vehicle: saline with Tween-80",92 % of control
same,T/C,"dose: 512.0 mg/kg/injection, schedule: Q01DX001 (oral), vehicle: Klucel (hydroxypropylcellulose) (HPC)",90 % of control
O=C1c2c(O)ccc(O)c2C(=O)c2c(NCCNCCO)ccc(NCCNCCO)c21,T/C,"dose: 1.0 mg/kg/injection, schedule: Q01DX005 (ip), vehicle: saline with Tween-80",102 % of control
same,T/C,"dose: 2.0 mg/kg/injection, schedule: Q01DX005 (ip), vehicle: saline with Tween-80",96 % of control
same,T/C,[1],106 % of control
ClC1C(Cl)C(Cl)C(Cl)C(Cl)C1Cl (stereo unspecified),T/C,[2],96 % of control and 87 % of control
same,T/C,[3],94 % of control and 98 % of control
same,T/C,[4],107 % of control
same,T/C,[5],96 % of control and 103 % of control
Nc1ccc(S(N)(=O)=O)cc1,T/C,[2],97 % of control
same,T/C,[3],88 % of control
same,T/C,[4],96 % of control
same,T/C,[5],100 % of control
same,T/C,"dose: 720.0 mg/kg/injection, schedule: Q01DX005 (ip), vehicle: saline with Tween-80",90 % of control
Nc1ccc(C(=O)O)c(O)c1,T/C,"dose: 67.5 mg/kg/injection, schedule: Q01DX005 (ip), vehicle: saline with Tween-80",103 % of control
same,T/C,"dose: 135.0 mg/kg/injection, schedule: Q01DX005 (ip), vehicle: saline with Tween-80",94 % of control
same,T/C,"dose: 270.0 mg/kg/injection, schedule: Q01DX005 (ip), vehicle: saline with Tween-80",86 % of control
Clc1ccc(C(c2ccc(Cl)cc2)C(Cl)(Cl)Cl)cc1,T/C,"dose: 8.0 mg/kg/injection, schedule: Q01DX005 (ip), vehicle: Klucel (hydroxypropylcellulose) (HPC)",92 % of control
same,T/C,"dose: 16.0 mg/kg/injection, schedule: Q01DX005 (ip), vehicle: Klucel (hydroxypropylcellulose) (HPC)",101 % of control
same,T/C,"dose: 32.0 mg/kg/injection, schedule: Q01DX005 (ip), vehicle: Klucel (hydroxypropylcellulose) (HPC)",96 % of control
Cc1c2ccncc2c(C)c2c1[nH]c1ccccc12,T/C,"dose: 128.0 mg/kg/injection, schedule: Q01DX001 (ip), vehicle: Klucel (hydroxypropylcellulose) (HPC)",103 % of control
CCN(CC)CCCC(C)Nc1c2ccc(Cl)cc2nc2ccc(OC)cc12 (stereo unspecified),T/C,[6],104 % of control
same,T/C,[7],91 % of control
same,T/C,[8],98 % of control
same,T/C,[9],102 % of control
same,T/C,[10],90 % of control
same,T/C,[11],94 % of control
same,T/C,[12],95 % of control
same,T/C,[13],94 % of control
O=C(N/N=C\c1cc(Br)cc(Br)c1O)N/N=C/c1cc(Br)cc(Br)c1O,T/C,[9],88 % of control
same,T/C,[11],97 % of control
same,T/C,[13],88 % of control
same,T/C,"dose: 256.0 mg/kg/injection, schedule: Q01DX005 (ip), vehicle: saline with Tween-80",93 % of control
OC(CCl)CN1CC[N+]2(CC1)CC[N+]1(CCN(CC(O)CCl)CC1)CC2 (stereo unspecified),T/C,"dose: 40.0 mg/kg/injection, schedule: Q01DX005 (ip), vehicle: saline",109 % of control and 117 % of control
[N-]=[N+]=CC(=O)CCC(N)C(=O)O (stereo unspecified),T/C,[14],101 % of control
same,T/C,[15],115 % of control
same,T/C,[16],106 % of control
same,T/C,[17],121 % of control
CCC1(O)CC2CN(CCc3c([nH]c4ccccc34)C(C(=O)OC)(c3cc4c(cc3OC)N(C)C3C(O)(C(=O)NCCO)C(O)C5(CC)C=CCN6CCC43C65)C2)C1 (stereo unspecified),T/C,[14],108 % of control
same,T/C,[15],113 % of control
same,T/C,[16],117 % of control
same,T/C,"dose: 0.4 mg/kg/injection, schedule: Q01DX005 (ip), vehicle: saline",108 % of control
same,T/C,[17],108 % of control
c1cc2n(n1)CCN2,T/C,[10],108 % of control
same,T/C,[12],100 % of control
same,T/C,"dose: 128.0 mg/kg/injection, schedule: Q01DX005 (ip), vehicle: saline",102 % of control
CC/C(=C(/CC)c1ccc(O)cc1)c1ccc(O)cc1,T/C,[6],94 % of control
same,T/C,[7],101 % of control
same,T/C,[8],100 % of control
same,T/C,[9],112 % of control
same,T/C,[10],99 % of control
same,T/C,[11],100 % of control
same,T/C,[12],110 % of control
O=C(CCBr)N1CCN(C(=O)CCBr)CC1,T/C,"dose: 2.5 mg/kg/injection, schedule: Q01DX005 (ip), vehicle: saline with Tween-80",98 % of control
same,T/C,"dose: 5.0 mg/kg/injection, schedule: Q01DX005 (ip), vehicle: saline with Tween-80",103 % of control
same,T/C,"dose: 10.0 mg/kg/injection, schedule: Q01DX005 (ip), vehicle: saline with Tween-80",92 % of control
same,T/C,"dose: 20.0 mg/kg/injection, schedule: Q01DX005 (ip), vehicle: saline with Tween-80",105 % of control
same,T/C,"dose: 40.0 mg/kg/injection, schedule: Q01DX005 (ip), vehicle: saline with Tween-80",105 % of control
same,T/C,"dose: 80.0 mg/kg/injection, schedule: Q01DX005 (ip), vehicle: saline with Tween-80",111 % of control
OCCN1CCN(CC/C=C2/c3ccccc3Sc3ccc(C(F)(F)F)cc32)CC1,T/C,"dose: 12.5 mg/kg/injection, schedule: Q04DX003 (ip), vehicle: saline",115 % of control
same,T/C,"dose: 25.0 mg/kg/injection, schedule: Q04DX003 (ip), vehicle: saline",117 % of control
COc1ccc2c(c1O)-c1cc(O)cc3c1C(C2)N(CCCl)CC3 (stereo unspecified),T/C,[1],95 % of control and 98 % of control
same,T/C,"dose: 8.0 mg/kg/injection, schedule: Q01DX005 (ip), vehicle: saline with Tween-80",98 % of control
same,T/C,[7],94 % of control and 100 % of control
same,T/C,[9],110 % of control
N=C(N)SCc1c2ccccc2c(CSC(=N)N)c2ccccc12,T/C,"dose: 2.5 mg/kg/injection, schedule: Q01DX005 (ip), vehicle: Klucel (hydroxypropylcellulose) (HPC)",99 % of control
same,T/C,"dose: 5.0 mg/kg/injection, schedule: Q01DX005 (ip), vehicle: Klucel (hydroxypropylcellulose) (HPC)",100 % of control
same,T/C,"dose: 10.0 mg/kg/injection, schedule: Q01DX005 (ip), vehicle: Klucel (hydroxypropylcellulose) (HPC)",90 % of control
same,T/C,"dose: 20.0 mg/kg/injection, schedule: Q01DX005 (ip), vehicle: Klucel (hydroxypropylcellulose) (HPC)",102 % of control
